Holding throughout (test): cells
Design in all cases: Viability of PDAC cell lines, ATPlite luminescence, 11-dose single-agent curve fit
In general terms: In ATP-based viability assays light output follows the ATP content of the culture.

Experiment [1] deals with Colo-357. As to conditions: Homo sapiens, COLO357, 72 h, read-out: EC50 [nM]. Here is the method:
(§1) Afterward, small amounts were transferred to 384-well intermediate plates (Greiner Bio-One GmbH, Germany). […] For drug combination screening, 1000 to 5000 cells were seeded into 384-well plates (CulturPlate™, Perkin Elmer, MA, USA) using a Multidrop™ Combi Reagent Dispenser (Thermo Scientific, MA, USA) in 50 µl medium per well 24 h prior to drug treatment (seeding densities see Appendix Table S1). […] The final DMSO concentration in each well was 0.2%. […] Eight wells per plate without library drug served as negative controls, and sixteen wells per plate containing 5 µM Staurosporine served as positive controls. […] Next, we analyzed the drug sensitivity of immortalized duct cell line HPDE to detect effects unrelated to pancreatic cancer.

In experiment [2] the test system is Dan-G. As to conditions: 72 h, read-out: EC50 [nM]. The protocol: as §1
Experiment [3] relates to Suit2-07. The note with it: 72 h, read-out: EC50 [nM]. Here is the method: as §1
Experiment [4] concerns PANC-1. As to conditions: Homo sapiens, PANC-1, 72 h, read-out: EC50 [nM]. Here is the method: as §1
Experiment [5] deals with HPDE. The note with it: HPDE, 72 h, read-out: EC50 [nM]. Here is the method: as §1
Experiment [6] concerns BxPC-3. As to conditions: Homo sapiens, BXPC-3, 72 h, read-out: EC50 [nM]. The protocol: as §1
For experiment [7], the system named is MiaPaCa-2. The note with it: Homo sapiens, MIA PaCa-2, 72 h, read-out: EC50 [nM]. Here is the method:
as §1

Experiment [8] relates to PaTu-8988-T. As to conditions: Homo sapiens, PaTu 8988t, 72 h, read-out: EC50 [nM]. The protocol:
as §1

The subject of experiment [9] is HuP-T4. As to conditions: Homo sapiens, HuP-T4, 72 h, read-out: EC50 [nM]. The protocol:
as §1

Experiment [10] deals with AsPC-1. As to conditions: Homo sapiens, ASPC1, 72 h, read-out: EC50 [nM]. The protocol:
as §1

Experiment [11] concerns Capan-1. As to conditions: Homo sapiens, CAPAN-1, 72 h, read-out: EC50 [nM]. Here is the method:
as §1

The subject of experiment [12] is PSN-1. The note with it: Homo sapiens, PSN1, 72 h, read-out: EC50 [nM]. The protocol:
as §1

Experiment [13] has as its system FAMPAC. As to conditions: 72 h, read-out: EC50 [nM]. Here is the method:
as §1

Each structure is given as a SMILES string.

As a reminder, the EC50 is the concentration that produces a half-maximal response. For `Cc1cccc(-c2[nH]c(CNc3ccccc3F)nc2-c2ccc3ncnn3c2)n1` [Vactosertib], the EC50 in [1] is 7510 nM; in [2], 51.8 nM; in experiment [3], 0.8 nM; in experiment [4] it was 3660 nM; in experiment [5] it was 217 nM; in experiment [6] it was 2150 nM. The EC50 in experiment [7] stood at 6110 nM; in [8], 838 nM; in experiment [9], 17.8 nM; in experiment [10], 78.2 nM; in experiment [11], 809 nM; in experiment [12], 4290 nM. Also, the EC50 in experiment [13] is 3450 nM.
For `Cc1cn(-c2cc(NC(=O)c3ccc(C)c(Nc4nccc(-c5cnccn5)n4)c3)cc(C(F)(F)F)c2)cn1` [Radotinib], the EC50 in experiment [1] is 196 nM; in experiment [2], 5910 nM; in experiment [3], 99.5 nM; in [4] it was 260 nM; in experiment [5], 6.45 nM; in experiment [6], 1780 nM. For the same compound, the EC50 in experiment [7] is 3580 nM; in experiment [8], 1390 nM; in experiment [9], more than 10000 nM; in experiment [10], 1050 nM; in experiment [11], 4010 nM; in experiment [12], 11 nM. In addition, in [13], the EC50 turned out to be 4270 nM.
Consider `COCCNc1cc(NC(=O)N2CCCc3cc(CN4CCN(C)CC4=O)c(C=O)nc32)ncc1C#N` [Roblitinib], for which the EC50 in [1] is more than 10000 nM; in experiment [2], 150 nM; in [3], 7.75 nM; in [4], 1060 nM; in experiment [5], 0.09 nM; in experiment [6], 5220 nM. The EC50 in experiment [7] was 207 nM; in experiment [8], more than 10000 nM; in experiment [9] it was 60.7 nM; in [10], 0.56 nM; in [11], 25.8 nM; in experiment [12] it was 4040 nM. In addition, in experiment [13], the EC50 is 7290 nM.
As for `CCC(=O)N1CC[C@H](Nc2ncnc3c2CN(c2cnc(OC)c(C(F)(F)F)c2)CC3)C1` [Leniolisib], the EC50 in [1] is 3830 nM; in [2] it was 6460 nM; in experiment [3], 4720 nM; in experiment [4] it was more than 10000 nM; in experiment [5], 6030 nM; in experiment [6], 2210 nM. Besides, the EC50 was more than 10000 nM in experiment [7]; 9180 nM in experiment [8]; 733 nM in experiment [9]; 2110 nM in experiment [10]; 4340 nM in experiment [11]; 8970 nM in experiment [12]. Moreover, in experiment [13], the EC50 turned out to be 2610 nM.
Consider `CC(C)Oc1ccc(-c2nn([C@@H](C)c3oc4ccc(F)cc4c(=O)c3-c3cccc(F)c3)c3ncnc(N)c23)cc1F` [Umbralisib], for which the EC50 in experiment [1] was 0.12 nM; in experiment [2] it was 441 nM; in [3], 1310 nM; in experiment [4] it was 655 nM; in experiment [5] it was 6540 nM; in [6], 683 nM. The EC50 in [7] was more than 10000 nM; in experiment [8], 4550 nM; in experiment [9] it was 1370 nM; in [10] it was 26.5 nM; in experiment [11], 39.7 nM; in experiment [12] it was 62.6 nM. Further, the EC50 in experiment [13] was found to be 8790 nM.
For the compound `Clc1ccc(Nc2nnc(Cc3ccncc3)c3ccccc23)cc1` [Vatalanib], the EC50 in experiment [1] is 3990 nM; in experiment [2], 6860 nM; in experiment [3], more than 10000 nM; in experiment [4], more than 10000 nM; in [5], 32.8 nM; in [6], 9360 nM. In addition, the EC50 was more than 10000 nM in experiment [7]; 3840 nM in [8]; 23.9 nM in experiment [9]; more than 10000 nM in experiment [10]; 4530 nM in [11]; 4870 nM in experiment [12]. For the same compound, the EC50 in experiment [13] is 6650 nM.
As for `COc1cc2nccc(Oc3ccc(NC(=O)NC4CC4)c(Cl)c3)c2cc1C(N)=O` [Lenvatinib], the EC50 in [1] was 4390 nM; in [2], 39.1 nM; in [3], 0.2 nM; in experiment [4] it was 655 nM; in experiment [5], more than 10000 nM; in experiment [6], more than 10000 nM. Further, the EC50 in experiment [7] is 4890 nM; in experiment [8] it was more than 10000 nM; in [9] it was 0.14 nM; in experiment [10], 394 nM; in experiment [11] it was 7850 nM; in experiment [12], 7480 nM. The EC50 in experiment [13] is 164 nM.
As for `CC[C@@H]1CN(C(=O)NCC(F)(F)F)C[C@@H]1c1cnc2cnc3[nH]ccc3n12` [Upadacitinib], the EC50 in [1] is 1.06 nM; in [2] it was 309 nM; in [3] it was 6.77 nM; in experiment [4], 215 nM; in experiment [5], 26.9 nM; in experiment [6] it was 704 nM. In addition, the EC50 in experiment [7] was 1590 nM; in experiment [8], more than 10000 nM; in experiment [9], 973 nM; in experiment [10], 137 nM; in experiment [11], 0.18 nM; in experiment [12], 7050 nM. In addition, in [13], the EC50 came out at 49 nM.
Turning to `Cc1[nH]c(/C=C2\C(=O)Nc3ccccc32)c(C)c1CCC(=O)O` [Orantinib], the EC50 in experiment [1] was found to be 2.98 nM; in experiment [2], 487 nM; in [3] it was 2.77 nM; in experiment [4], 568 nM; in experiment [5], 61.9 nM; in experiment [6], 1040 nM. For the same compound, the EC50 in experiment [7] came to 47 nM; in experiment [8] it was 135 nM; in [9], 2430 nM; in experiment [10], 145 nM; in experiment [11] it was 17.6 nM; in experiment [12], 366 nM. In addition, the EC50 in experiment [13] stood at 0.01 nM.
In the case of `CC#CC(=O)N1CCC[C@H]1c1nc(-c2ccc(C(=O)Nc3ccccn3)cc2)c2c(N)nccn12` [Acalabrutinib], the EC50 in experiment [1] came to 2640 nM; in experiment [2] it was 553 nM; in experiment [3], 13.1 nM; in experiment [4] it was 365 nM; in experiment [5], 703 nM; in [6] it was 756 nM. Also, the EC50 stood at 718 nM in experiment [7]; 1590 nM in [8]; 632 nM in experiment [9]; 1.48 nM in experiment [10]; 3020 nM in experiment [11]; 4470 nM in [12]. In addition, in [13], the EC50 was more than 10000 nM.
With `Cn1cc(-c2cc3c(N4CCN(c5ncc([C@@](C)(N)c6ccc(F)cc6)cn5)CC4)ncnn3c2)cn1` [Avapritinib], the EC50 worked out at 420 nM in experiment [1]; 3820 nM in experiment [2]; 3550 nM in [3]; 2600 nM in experiment [4]; 976 nM in experiment [5]; 3240 nM in experiment [6]. Moreover, the EC50 amounted to 1710 nM in [7]; 1570 nM in experiment [8]; 701 nM in [9]; 1990 nM in experiment [10]; 3830 nM in experiment [11]; 1010 nM in [12]. Besides, the EC50 in experiment [13] amounted to 2070 nM.
As to `Cc1cc(F)c(C(=O)Nc2cccc(-c3nncn3C(C)C)n2)cc1-n1cnc(C2CC2)c1` [Selonsertib], the EC50 in [1] was more than 10000 nM; in experiment [2], 10300 nM; in experiment [3], 4310 nM; in experiment [4] it was 8800 nM; in experiment [5] it was more than 10000 nM; in experiment [6], more than 10000 nM. In addition, the EC50 in experiment [7] turned out to be 4950 nM; in [8], 5440 nM; in experiment [9], 3.85 nM; in [10] it was 755 nM; in experiment [11] it was 8570 nM; in experiment [12], 6150 nM. Besides, the EC50 in experiment [13] was more than 10000 nM.

These data come from article PMC11876601 (Molecular Systems Biology, 2025).
